According to paper doi:10.1101/2025.10.16.682859v2 (biorxiv, 2025):

Key:
[1] = biological target: T1, human argininosuccinate synthetase (ASS1) (Homo sapiens, UniProt P00966); test: differential scanning fluorimetry; type: binding; conditions: 5 mM ATP, 10 mM MgCl2, pH 8.0
T1 sequence (P00966 1-412): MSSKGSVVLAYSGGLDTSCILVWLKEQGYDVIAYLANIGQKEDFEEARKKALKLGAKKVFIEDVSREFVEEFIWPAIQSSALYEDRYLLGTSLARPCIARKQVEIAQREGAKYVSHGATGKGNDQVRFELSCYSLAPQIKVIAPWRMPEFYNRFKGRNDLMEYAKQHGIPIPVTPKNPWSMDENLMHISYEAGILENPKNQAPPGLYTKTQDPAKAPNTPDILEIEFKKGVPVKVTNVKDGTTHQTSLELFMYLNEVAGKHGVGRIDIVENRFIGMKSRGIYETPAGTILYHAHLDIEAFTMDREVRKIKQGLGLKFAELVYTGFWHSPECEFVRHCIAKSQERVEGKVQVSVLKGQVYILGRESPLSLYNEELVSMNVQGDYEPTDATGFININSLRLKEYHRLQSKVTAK

[2] = biological target: T2, human asparagine synthetase (ASNS) (Homo sapiens, UniProt P08243); test: HPLC end-point assay of L-asparagine formation; type: biochemical
T2 sequence (P08243 2-561): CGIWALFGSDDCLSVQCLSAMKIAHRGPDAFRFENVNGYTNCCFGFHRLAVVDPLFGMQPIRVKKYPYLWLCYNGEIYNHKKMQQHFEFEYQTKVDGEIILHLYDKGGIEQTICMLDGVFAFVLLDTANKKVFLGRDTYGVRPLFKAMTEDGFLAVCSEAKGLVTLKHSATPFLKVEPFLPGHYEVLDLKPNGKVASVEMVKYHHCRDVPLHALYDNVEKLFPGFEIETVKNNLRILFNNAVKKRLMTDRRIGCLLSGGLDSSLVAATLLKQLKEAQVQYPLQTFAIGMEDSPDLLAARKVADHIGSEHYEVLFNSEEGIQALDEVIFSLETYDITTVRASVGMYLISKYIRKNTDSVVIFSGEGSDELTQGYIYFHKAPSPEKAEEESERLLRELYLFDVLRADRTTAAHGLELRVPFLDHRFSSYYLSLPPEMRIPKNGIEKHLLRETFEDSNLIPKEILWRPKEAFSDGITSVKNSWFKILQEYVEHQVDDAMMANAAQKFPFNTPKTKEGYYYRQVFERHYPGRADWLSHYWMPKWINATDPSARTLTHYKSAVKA

[3] = biological target: T3, ASNS (endogenous, HEK-293A cells) (Homo sapiens, UniProt P08243); test: cellular thermal shift, immunoblot; type: cell-based; conditions: cells treated with 50 nM for 1 h, lysate heated 25-90 °C
T3 sequence (P08243 2-561): T2 sequence (P08243 2-561)

How did the Tm [1] turn out when `Nc1ncnc2c1ncn2[C@@H]1O[C@H](COP(=O)(O)OP(=O)(O)OP(=O)(O)O)[C@@H](O)[C@H]1O` [ATP] was run?
Its Tm is 47 to 52 °C.

Which results are given for `CC[C@H](N)C(=O)N1C[C@@H](c2ccc(F)cc2)[C@H](O)[C@@H]1C(=O)NC(c1ccccc1)c1ccccc1` [compound 17, ASX-173]?
IC50 [2]: 0.5 ± 0.2 µM; Tm [3]: 45 to 54 °C
